Publication PMC11078990, “Identification and characterization of small molecule inhibitors of the LINE-1 retrotransposon endonuclease” (Nature Communications, 2024)
Values joined by “and” are separate entries in the source; they are usually repeats but may differ in a detail not shown here. Identical values can stand only once. Values belong to the molecule of their own block, whether it stands above or below them.

Experiments:
[1] = system: substrate oligonucleotide used in the EN activity assay; assay type: binding; set-up: key to Binding Detected? (Y/N): Binding Detected? (Y/N); Binding Detected? (Y/N)
APE1 = target: T1, APE1 (Homo sapiens, UniProt P27695); experiment: APE1 fluorescent oligonucleotide activity assay (abasic site substrate); assay type: biochemical; conditions: for APE1 percent activity, Replicate 1 / APE1 percent activity, Replicate 2 / APE1 percent activity, Replicate 3 / APE1 percent activity, average: compound at 25 μM; for APE1 percent activity, average: average of 3 replicates; for activity at 25 µM: inhibitors at 25 μM, relative to 0 μM inhibitor control, mean ± s.d., 3 independent experiments, read-out: APE1 activity (%)
T1 construct: purchased New England Biolabs (NEB) M0282S

L1 retrotransposition = experiment: HeLa dual-luciferase L1 retrotransposition assay; assay type: cell-based, human; conditions: HeLa cells
[2] = target: L1 EN (LINE-1 retrotransposon endonuclease domain) (Homo sapiens, UniProt O00370, N5T); experiment: Fluorescent oligonucleotide EN nicking activity assay; assay type: biochemical
[3] = [Inhibitor] 10 μM, technical replicates 1-3, Fig. 2b source data, 10 µM
[4] = [Inhibitor] 10 μM, technical replicates 1-3, Fig. 2b source data, read-out: EN activity, percent of no inhibitor control
[5] = [Inhibitor] 25 μM, technical replicates 1-3, Fig. 2b source data, 25 µM
[6] = [Inhibitor] 50 μM, technical replicates 1-3, Fig. 2b source data, 50 µM
[7] = [Inhibitor] 50 μM, technical replicates 1-3, Fig. 2b source data, read-out: EN activity, percent of no inhibitor control
[8] = [Inhibitor] 100 μM, technical replicates 1-3, Fig. 2b source data, 100 µM
[9] = [Inhibitor] 250 μM, technical replicates 1-3, Fig. 2b source data, 250 µM
[10] = [Inhibitor] 250 μM, technical replicates 1-3, Fig. 2b source data, read-out: EN activity, percent of no inhibitor control
[11] = [Inhibitor] 100 μM, technical replicates 1-3, Fig. 2b source data, read-out: EN activity, percent of no inhibitor control
[12] = [Inhibitor] 500 μM, technical replicates 1-3, Fig. 2b source data, 500 µM
[13] = [Inhibitor] 500 μM, technical replicates 1-3, Fig. 2b source data, read-out: EN activity, percent of no inhibitor control
[14] = [Inhibitor] 1000 μM, technical replicates 1-3, Fig. 2b source data, 1000 µM
[15] = [Inhibitor] 2500 μM, technical replicates 1-3, Fig. 2b source data, 2500 µM

L1 EN (LINE-1 retrotransposon endonuclease domain), sequence (O00370 1-239 N5T): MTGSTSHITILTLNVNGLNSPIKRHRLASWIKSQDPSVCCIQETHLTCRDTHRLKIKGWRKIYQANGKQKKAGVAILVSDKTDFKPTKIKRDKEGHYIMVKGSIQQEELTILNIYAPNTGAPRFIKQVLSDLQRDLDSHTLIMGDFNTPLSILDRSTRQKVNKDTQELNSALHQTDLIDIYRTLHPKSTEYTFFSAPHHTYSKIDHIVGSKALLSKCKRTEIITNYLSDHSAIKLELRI

Structure (SMILES): COc1ccc([N+](=O)[O-])cc1NC(=O)c1ccc2c(c1)N(Cc1cc(C)ccc1C)C(=O)c1ccccc1S2(=O)=O [AD34]
- Binding Detected? (Y/N) [1]: N
- APE1 percent activity, Replicate 1 (APE1): 115.867%
- APE1 percent activity, Replicate 2 (APE1): 110.244%
- APE1 percent activity, Replicate 3 (APE1): 115.389%
- APE1 percent activity, average (APE1): 113.833%
- activity at 25 µM (APE1): 114 ± 3.1%
- Effect on L1 retrotransposition (L1 retrotransposition): did not significantly impact retrotransposition
- EN activity, percent of no inhibitor control ([2]; [Inhibitor] 1 μM, technical replicates 1-3, Fig. 2b source data, 1 µM): 107.144% and 82.3328% (2×)
- EN activity, percent of no inhibitor control ([2]; [Inhibitor] 5 μM, technical replicates 1-3, Fig. 2b source data, 5 µM): 106.747% and 72.7727% (2×)
- EN activity, percent of no inhibitor control [2, 3]: 61.3218%
- remaining activity at 10 µM [2, 4]: 63.6%
- EN activity, percent of no inhibitor control [2, 5]: 17.0147%
- remaining activity at 25 µM ([2]; [Inhibitor] 25 μM, technical replicates 1-3, Fig. 2b source data, read-out: EN activity, percent of no inhibitor control): 13.4%
- EN activity, percent of no inhibitor control [2, 6]: 2.345%
- remaining activity at 50 µM [2, 7]: 1.88%
- EN activity, percent of no inhibitor control [2, 8]: -0.6009% and -1.977% (2×)
- EN activity, percent of no inhibitor control [2, 9]: 6.512%
- remaining activity at 250 µM [2, 10]: 4.89%

Structure (SMILES): O=C(O)C1CCC(Cn2c(=S)[nH]c3ccc(F)cc3c2=O)CC1 (centres unmarked) [AD41]
- Binding Detected? (Y/N) [1]: N
- APE1 percent activity, Replicate 1 (APE1): 117.184%
- APE1 percent activity, Replicate 2 (APE1): 102.457%
- APE1 percent activity, Replicate 3 (APE1): 114.725%
- APE1 percent activity, average (APE1): 111.455%
- activity at 25 µM (APE1): 112 ± 7.9%
- EN activity, percent of no inhibitor control [2, 3]: 93.0871% and 88.0691%
- remaining activity at 10 µM [2, 4]: 99.2%
- EN activity, percent of no inhibitor control [2, 6]: 81.1063% and 95.3657%
- remaining activity at 50 µM [2, 7]: 81.9%
- EN activity, percent of no inhibitor control [2, 8]: 73.6781% and 70.7755%
- remaining activity at 100 µM [2, 11]: 89.5%
- EN activity, percent of no inhibitor control [2, 9]: 52.6672% and 53.2546%
- remaining activity at 250 µM [2, 10]: 37.1%
- EN activity, percent of no inhibitor control [2, 12]: 15.8485% and 15.0123%
- remaining activity at 500 µM [2, 13]: 16.8%
- EN activity, percent of no inhibitor control [2, 14]: 2.51% and 3.937%
- remaining activity at 1000 µM ([2]; [Inhibitor] 1000 μM, technical replicates 1-3, Fig. 2b source data, read-out: EN activity, percent of no inhibitor control): 3.26%
- EN activity, percent of no inhibitor control [2, 15]: -0.5395% and 2.354% and 1.088%
- EN activity, percent of no inhibitor control ([2]; [Inhibitor] 5000 μM, technical replicates 1-3, Fig. 2b source data, 5000 µM): 3.138% and -0.1325% and -0.6231%

Structure (SMILES): Cc1cc(O[C@H](C)C(=O)NC[C@H]2CC[C@H](C(=O)O)CC2)c2c3c(c(=O)oc2c1)CCC3 [AD50]
- Binding Detected? (Y/N) [1]: N
- APE1 percent activity, Replicate 1 (APE1): 117.885%
- APE1 percent activity, Replicate 2 (APE1): 112.48%
- APE1 percent activity, Replicate 3 (APE1): 116.717%
- APE1 percent activity, average (APE1): 115.694%
- activity at 25 µM (APE1): 116 ± 2.8%
- EN activity, percent of no inhibitor control [2, 3]: 88.1732% and 95.3255%
- remaining activity at 10 µM [2, 4]: 89.8%
- EN activity, percent of no inhibitor control [2, 5]: 105.309% and 98.5437% and 118.945%
- EN activity, percent of no inhibitor control [2, 6]: 102.098% and 94.5993%
- remaining activity at 50 µM [2, 7]: 99.1%
- EN activity, percent of no inhibitor control [2, 8]: 99.5828% and 92.7301%
- remaining activity at 100 µM [2, 11]: 105%
- EN activity, percent of no inhibitor control [2, 9]: 85.2034% and 69.8502%
- remaining activity at 250 µM [2, 10]: 78.9%
- EN activity, percent of no inhibitor control [2, 12]: 1.6976% and 1.409%
- remaining activity at 500 µM [2, 13]: 1.24%
- EN activity, percent of no inhibitor control [2, 14]: 0.8764% and -0.04895% and -0.3009%
- EN activity, percent of no inhibitor control [2, 15]: 1.256% and 0.4525% and 1.333%

- inhibition at 25000 µM ([2]; 25 mM, highest soluble concentration): ~75%
Structure (SMILES): NC[C@H]1CC[C@H](C(=O)O)CC1 [tranexamic acid, reference compound]
- IC50 in the fluorescent oligonucleotide assay [2]: does not inhibit sufficiently to calculate an
